Reference: patent publication US12161630B2, “Methods to control infection using new generation small molecule growth inhibitors” (priority 2017, dated 2024)
Values after ≈ are worked out from the molar mass of the structure shown.

Experiments:
S. typhimurium WT [1] = assay: High-throughput primary screen for S. typhimurium growth inhibitors at 200 μM; assay type: cell-based, Salmonella enterica subsp. enterica serovar Typhimurium LT2; settings: adjusted M9 minimal broth, 12 hrs, 37° C., bactericidal = 100% growth inhibition and no growth on XLT4 agar, bacteriostatic = 100% growth inhibition but growth on XLT4 agar
Experimental: (§1) Identification of S. typhimurium growth inhibitors: The 4182 small molecules (SMs) were screened at 200 μM against S. typhimurium WT using HTS assay in a 96-well plate format. An overnight Salmonella suspension was normalized at 0.05 OD600 (approximately 3.5×10^7 CFU/ml) with an adjusted M9 minimal broth medium (12.7 mM Na2HPO4 7H2O; 22 mM KH2PO4; 18.7 mM NH4Cl; 2 mM MgSO4; 0.1 mM CaCl2; 0.4% glucose; 0.05% casamino acids). 100 μL of the suspension plus 2 μl of SMs (200 μM) were transferred into each well of a sterile, non-treated, flat bottom 96-well plate. Bacteria alone (negative control, NC), 2% DMSO plus bacteria (DMSO control), 20 μg/ml chloramphenicol or 50 μg/ml kanamycin plus bacteria (positive controls, PC), and M9 medium only were used as control. Plates were incubated in a Sunrise™ Tecan kinetic microplate reader for 12 hrs at 37° C. and the optical density (OD) was measure at 600 nm as described above. Percentage of inhibition=[…]. SMs were identified as growth inhibitors if their inhibition value after incubation was above 20% (value representing the inhibition level monitored with the DMSO controls). Cultures from wells showing no turbidimetric increase were transferred onto a XLT4 agar plate. Plates were incubated at 37° C. for 36 hrs.

S. typhimurium WT [2] = assay: MIC and MBC dose-response, serotype Typhimurium; assay type: cell-based, Salmonella enterica subsp. enterica serovar Typhimurium LT2; settings: Salmonella serotype Typhimurium; MIC identical to MBC
Experimental: as §1, with “An” for “Identification of S. typhimurium growth inhibitors: The 4182 small molecules (SMs) were screened at 200 μM against S. typhimurium WT using HTS assay in a 96-well plate format. An”, “SMs were identified as growth inhibitors if their inhibition value after incubation was above 20% (value representing the inhibition level monitored with the DMSO controls).” left out
(§2) Screens were performed as described in the primary screen. The lowest SM concentration with a static effect was considered as the minimal inhibitory concentration (MIC) and the lowest SM concentration with a cidal effect was considered as the minimal bactericidal concentration (MBC).

Salmonella Albany = assay: MIC and MBC dose-response, serotype Albany; assay type: cell-based, Salmonella enterica; settings: MIC identical to MBC
Experimental: as §1, with “An” for “Identification of S. typhimurium growth inhibitors: The 4182 small molecules (SMs) were screened at 200 μM against S. typhimurium WT using HTS assay in a 96-well plate format. An”, “SMs were identified as growth inhibitors if their inhibition value after incubation was above 20% (value representing the inhibition level monitored with the DMSO controls).” left out
as §2

Salmonella Anatum = assay: MIC and MBC dose-response, serotype Anatum; assay type: cell-based, Salmonella enterica; settings: MIC identical to MBC
Experimental: as §1, with “An” for “Identification of S. typhimurium growth inhibitors: The 4182 small molecules (SMs) were screened at 200 μM against S. typhimurium WT using HTS assay in a 96-well plate format. An”, “SMs were identified as growth inhibitors if their inhibition value after incubation was above 20% (value representing the inhibition level monitored with the DMSO controls).” left out
as §2

Salmonella Braenderup = assay: MIC and MBC dose-response, serotype Braenderup; assay type: cell-based, Salmonella enterica; settings: MIC identical to MBC
Salmonella Enteritidis = assay: MIC and MBC dose-response, serotype Enteritidis; assay type: cell-based, Salmonella enterica; settings: MIC identical to MBC
Experimental: as §1, with “An” for “Identification of S. typhimurium growth inhibitors: The 4182 small molecules (SMs) were screened at 200 μM against S. typhimurium WT using HTS assay in a 96-well plate format. An”, “SMs were identified as growth inhibitors if their inhibition value after incubation was above 20% (value representing the inhibition level monitored with the DMSO controls).” left out
as §2

Salmonella Heidelberg = assay: MIC and MBC dose-response, serotype Heidelberg; assay type: cell-based, Salmonella enterica; settings: MIC identical to MBC
Experimental: as §1, with “An” for “Identification of S. typhimurium growth inhibitors: The 4182 small molecules (SMs) were screened at 200 μM against S. typhimurium WT using HTS assay in a 96-well plate format. An”, “SMs were identified as growth inhibitors if their inhibition value after incubation was above 20% (value representing the inhibition level monitored with the DMSO controls).” left out
as §2

Salmonella Javiana = assay: MIC and MBC dose-response, serotype Javiana; assay type: cell-based, Salmonella enterica; settings: MIC identical to MBC
Experimental: as §1, with “An” for “Identification of S. typhimurium growth inhibitors: The 4182 small molecules (SMs) were screened at 200 μM against S. typhimurium WT using HTS assay in a 96-well plate format. An”, “SMs were identified as growth inhibitors if their inhibition value after incubation was above 20% (value representing the inhibition level monitored with the DMSO controls).” left out
as §2

Salmonella Newport = assay: MIC and MBC dose-response, serotype Newport; assay type: cell-based, Salmonella enterica; settings: MIC identical to MBC
Experimental: as §1, with “An” for “Identification of S. typhimurium growth inhibitors: The 4182 small molecules (SMs) were screened at 200 μM against S. typhimurium WT using HTS assay in a 96-well plate format. An”, “SMs were identified as growth inhibitors if their inhibition value after incubation was above 20% (value representing the inhibition level monitored with the DMSO controls).” left out
as §2

Salmonella Saint-Paul = assay: MIC and MBC dose-response, serotype Saint-Paul; assay type: cell-based; settings: MIC identical to MBC
Experimental: as §1, with “An” for “Identification of S. typhimurium growth inhibitors: The 4182 small molecules (SMs) were screened at 200 μM against S. typhimurium WT using HTS assay in a 96-well plate format. An”, “SMs were identified as growth inhibitors if their inhibition value after incubation was above 20% (value representing the inhibition level monitored with the DMSO controls).” left out
as §2

S. typhimurium WT [3] = assay: Antimicrobial resistance studies (single step and sequential passage); assay type: cell-based, Salmonella enterica subsp. enterica serovar Typhimurium LT2
Experimental: Antimicrobial resistance studies: Single step and sequential passage resistance assays were performed as described (9). The MIC of the selected five SMs against S. typhimurium WT was used as reference for lethal (2×MIC) and sub-lethal (0.75×MIC) doses.
The medium was allowed to solidify overnight in the dark at room temperature. The next day, 100 μl of S. typhimurium bacteria (approximately 10^9 CFU) was transferred onto the adjusted M9 agar containing 2×MIC of SMs. S. typhimurium WT growth in 2% DMSO, 20 μg/ml chloramphenicol, or 50 μg/ml kanamycin, and adjusted M9 medium only were used as controls. The plate was sealed with parafilm and incubated for 15 days in the dark at 37° C. After 15 days, 100 μl of LB broth was added to the wells of 24-well plate showing no colonies in order to resuspend the potential surviving bacteria and transferred into a 5 ml tube.
The plate was incubated in the dark at 37° C., 175 rpm for 12 hrs. After this first passage, the plate was centrifuged for seven min at 4500 rpm. Supernatant was replaced with a fresh adjusted M9 broth media amended with 0.75×MIC of the corresponding SM. This procedure was repeated fourteen times. Following the 15th passage, a dose-response assay was performed on the remaining alive S. typhimurium bacteria as describe previously.

Kan^R S. typhimurium = assay: Preventive efficacy in S. typhimurium-infected G. mellonella larvae; assay type: in vivo, Galleria mellonella; settings: 72 HPI; pretreated with 12.5 μg per larva 2 hrs before infection
Experimental: FIGS. 4(A-B). Preventive antimicrobial efficacy of SM treatment in S. typhimurium-infected G. mellonella. Larva were first treated with 12.5 μg SMs per larva (50 mg/kg), incubated for 2 hrs at 37° C. in the dark, then infected with 10^4 CFU per larva, and further incubated at 37° C. in the dark for 72 hrs. FIG. 4A: G. mellonella larva survival rate. Survival rate was monitored every 12 hours for 72 hrs. Infected larva treated with chloramphenicol control (CK) had 100% survival. FIG. 4B: Bacterial quantification of Salmonella inside larvae following death of larva or, if alive, after 72 hours of incubation. Light black dot: larva still alive after 72 hrs post-inoculation (HPI); Black dot: larvae dead before 72 HPI.
Effect of the selected four SMs on S. typhimurium intracellular survival in G. mellonella larvae: Wax moths were selected as mentioned previously in the toxicity assay section. First, the virulence of both Kan^R and WT S. typhimurium strains in G. mellonella was assessed. Briefly, a S. typhimurium suspension normalized at approximately 10^6 CFU/ml in 10 mM MgSO4 was used as the inoculum. […] Survival rate was monitored every 12 hrs. The bacterial quantification was performed once the larvae were considered dead (dark pigmentation or no reaction to a mechanical stimulus) or after the 72 hrs of incubation. […]

CN(CCO)CC(O)Cn1c2ccc(Br)cc2c2cc(Br)ccc21 (centres unmarked) [SM2, 1-(3,6-dibromo-9H-carbazol-9-yl)-3-[(2-hydroxyethyl)(methyl)amino]-2-propanol]
Effect on S. Typhimurium at 200 μM (S. typhimurium WT [1]): Bactericidal | MIC/MBC (S. typhimurium WT [2]): 100 µM (≈ 45.6 µg/mL) | MIC/MBC (Salmonella Albany): 200 µM (≈ 91.2 µg/mL) | MIC/MBC (Salmonella Anatum): 200 µM (≈ 91.2 µg/mL) | MIC/MBC (Salmonella Braenderup): 200 µM (≈ 91.2 µg/mL) | MIC/MBC (Salmonella Enteritidis): 200 µM (≈ 91.2 µg/mL) | MIC/MBC (Salmonella Heidelberg): 200 µM (≈ 91.2 µg/mL) | MIC/MBC (Salmonella Javiana): 200 µM (≈ 91.2 µg/mL) | MIC/MBC (Salmonella Newport): 200 µM (≈ 91.2 µg/mL) | MIC/MBC (Salmonella Saint-Paul): 200 µM (≈ 91.2 µg/mL) | resistance after repeated exposure at sub-lethal dose (S. typhimurium WT [3]; 0.75×MIC in liquid medium, 15 passages at 37° C.): developed resistance mechanisms | resistance after single exposure at a lethal dose (S. typhimurium WT [3]; 2×MIC in solid medium): developed resistance mechanisms | SM concentration at which resistant bacteria were able to grow (S. typhimurium WT [3]; minimal growth condition, represents 4×MBC): 400 µM

O=C(N[C@H](CO)[C@H](O)c1ccc([N+](=O)[O-])cc1)C(Cl)Cl [chloramphenicol]
survival of infected larvae (Kan^R S. typhimurium): 100%
